Assays:
Type in all cases: physicochemical
[1] = Determining water solubility (pH 7 buffer, HPLC of supernatant); details: for Concentration measured by HPLC after treatment: pH 7 buffer
Procedure: A stock pH 7 buffer solution was prepared by adding aqueous sodium hydroxide solution (0.1 M, 145 mL) to aqueous potassium dihydrogen phosphate solution (0.1 M, 250 mL), and then adding sufficient distilled water to adjust the final volume to 500 mL. At least 1 time and up to about 5 times the amount of halosulfuron-methyl needed for saturation was added to a mixing vessel containing stock buffer solution at the test temperature (e.g., 20° C.). The mixture was magnetically stirred in the dark while being maintained at the test temperature. Samples were periodically removed for analysis. The samples were centrifuged using a high speed, temperature-controlled centrifuge at the test temperature for about 20 minutes at ≧12000 G to remove suspended particles. An aliquot of each supernatant was taken for analysis.
The concentration of halosulfuron-methyl in the supernatant was determined by a high pressure liquid chromatography (HPLC) with a reversed phase chromatography column and UV detection. […] Samples were successively withdrawn from the mixing vessel and analyzed until three successive samples show little or no variation in concentration. The test is preferably replicated to ensure accuracy.

[2] = Viscosity (stated finding, no method given)
[3] = Cleanout test (residual halosulfuron-methyl extracted from bottle with acetonitrile); details: lower rating = more effective cleanout
Procedure: The test was conducted by dispersing in water a sample to produce a concentration that is normally used when applying the herbicide: 25% halosulfuron-methyl. The sample was added to tap water (300 mL) in a 400 mL beaker and magnetically stirred for 2 minutes. The mixture was then stirred for 2 minutes, whereupon the resulting dispersion was dispensed in three 100 mL aliquots to 4-oz (118 mL) polyethylene bottles. The bottles were capped, inverted twice and allowed to stand overnight.
After standing overnight, each individual bottle was inverted twice and the liquid contents were then poured out. Tap water (10 mL) was added and the bottle was inverted until all sediment was re-suspended, whereupon the contents were poured out. Tap water (100 mL) was added and the bottle was inverted twice and then allowed to stand undisturbed for 10 minutes. The bottle was inverted twice more and the contents were poured out. Acetonitrile (10 mL) was added to the bottle to extract any remaining material. The acetonitrile solution was analyzed by reversed-phase liquid chromatography with UV detection. The cleanout rating (the concentration of halosulfuron-methyl herbicide in the acetonitrile solution) is reported in % in Table 6 below.

[4] = OD formulation, measured vs original concentration 40%
[5] = OD formulation, original concentration 40%
[6] = SG formulation, measured vs original concentration 25%
[7] = SG formulation, original concentration 25%
[8] = WG formulation, measured vs original concentration 25%
[9] = WG formulation, original concentration 25%

Structure (SMILES) | Solubility [1, 4] [%] | Concentration measured by HPLC after treatment [1, 5] [%] | Solubility [1, 6] [%] | Concentration measured by HPLC after treatment [1, 7] [%] | Solubility [1, 8] [%] | Concentration measured by HPLC after treatment [1, 9] [%] | viscosity (in words) ([2]; listed as halosulfuron-methyl in amorphous state) | Cleanout rating (concentration of halosulfuron-methyl in the acetonitrile solution) ([3]; OD formulation) [%] | Cleanout rating (concentration of halosulfuron-methyl in the acetonitrile solution) ([3]; SG formulation) [%] | Cleanout rating (concentration of halosulfuron-methyl in the acetonitrile solution) ([3]; WG formulation) [%] | solubility (in words) ([1]; compared with amorphous halosulfuron-methyl) | viscosity (in words) ([2]; listed as crystalline modification I of halosulfuron-methyl)
COC(=O)c1c(Cl)nn(C)c1S(=O)(=O)NC(=O)Nc1nc(OC)cc(OC)n1 [Amorphous halosulfuron-methyl, methyl 3-chloro-5-(4,6-dimethoxypyrimidin-2-ylcarbamoylsulfamoyl)-1-methylpyrazole-4-carboxylate, reference compound] | 35 | 14 | 60 | 15 | 48 | 12 | highly viscous | 26 | 10 | 13 |  | 
COC(=O)c1c(Cl)nn(C)c1S(=O)(=O)NC(=O)Nc1nc(OC)cc(OC)n1 [Halosulfuron-methyl, crystalline modification I] [methyl 3-chloro-5-(4,6-dimethoxypyrimidin-2-ylcarbamoylsulfamoyl)-1-methylpyrazole-4-carboxylate] | 88 | 35 | 99.6 | 24.9 | 92 | 23 |  | 5 | 0.1 | 2 | significant increase | decrease

From patent publication US9617247B1, “Form of halosulfuron-methyl, a process for its preparation and use of the same” (priority 2015, dated 2017)
